Source: paper PMC10597649, “Effect of Astragali radix extract on pharmacokinetic behavior of dapagliflozin in healthy and type 2 diabetic rats” (Frontiers in Pharmacology, 2023)
Like-named read-outs stand apart in the source and are kept apart here.

Columns and labels:
[1] = Pharmacokinetics of DAPA in healthy rats (alone or co-administered with ARE), plasma by UPLC-MS/MS; assay type: in vivo, Sprague Dawley (SD) rats; conditions: for MRT last: read-out: MRT(0-t)
Protocol: The column temperature was maintained at 40°C. […] The sample injection volume was 2 μL. […] The ion spray voltage was set at […]. […] The source temperature was kept at 200°C. The collision gas was set at low flow rate. […] The samples were processed by the procedure described above.

[2] = ref Kasichayanula et al., 2011, cited from earlier work
[3] = CD group: healthy rats, DAPA alone, single intragastric dose 1.05 mg/kg, n = 6, mean ± SD
[4] = CDA group compared to CD group (healthy rats, with ARE versus DAPA alone)
[5] = CDA group: healthy rats, ARE 300 mg/kg intragastric once a day for 7 days + DAPA single dose 1.05 mg/kg on day 7, n = 6, mean ± SD
[6] = CDA-H group: healthy rats, ARE 900 mg/kg once a day for 7 days + DAPA single dose 1.05 mg/kg on day 7, n=6, mean ± SD
[7] = CDA-L group: healthy rats, ARE 300 mg/kg once a day for 7 days + DAPA single dose 1.05 mg/kg on day 7, n=6, mean ± SD
[8] = male, Sprague-Dawley, rat, plasma, po, 1.05 mg/kg, CD group: healthy rats, DAPA alone, single intragastric dose 1.05 mg/kg, n = 6, mean ± SD
[9] = male, Sprague-Dawley, rat, plasma, po, 1.05 mg/kg, CDA-H group: healthy rats, ARE 900 mg/kg once a day for 7 days + DAPA single dose 1.05 mg/kg on day 7, n=6, mean ± SD
[10] = male, Sprague-Dawley, rat, plasma, po, 1.05 mg/kg, CDA-L group: healthy rats, ARE 300 mg/kg once a day for 7 days + DAPA single dose 1.05 mg/kg on day 7, n=6, mean ± SD
[11] = male, Sprague-Dawley, rat, plasma, po, CDA group: healthy rats, ARE 300 mg/kg intragastric once a day for 7 days + DAPA single dose 1.05 mg/kg on day 7, n = 6, mean ± SD

**Q.** For `CCOc1ccc(Cc2cc([C@@H]3O[C@H](CO)[C@@H](O)[C@H](O)[C@H]3O)ccc2Cl)cc1` [DAPA, Dapagliflozin], which “AUC(0-inf)” value [1, 3] is on record?
**A.** 3868.26±344.05 h*(ng/mL)

**Q.** And the “AUC(0-t)” value [1, 3]?
**A.** 3810.20±343.81 h*(ng/mL)

**Q.** What about the CL [1, 3] of the same molecule?
**A.** 273.31±25.26 (mL/h)/kg

**Q.** And the V [1, 3]?
**A.** 1.42595 ± 0.16328 L/kg

**Q.** And the “decrease of MRT” value [1, 4]?
**A.** 25.11%

**Q.** What about the “decrease of t max” value [1, 4] of the same molecule?
**A.** 55.91%

**Q.** And the “increase of C max” value [1, 4]?
**A.** 30.99%

**Q.** What about the “AUC(0-inf)” value [1, 5] of the same molecule?
**A.** 3845.72±851.15 h*(ng/mL)

**Q.** And the “AUC(0-t)” value [1, 5]?
**A.** 3783.24±852.77 h*(ng/mL)

**Q.** What about the C max [1, 5] of the same molecule?
**A.** 504.33 ± 99.44 ng/mL

**Q.** And the CL [1, 5]?
**A.** 283.83±58.84 (mL/h)/kg

**Q.** What about the V [1, 5] of the same molecule?
**A.** 1.5704 ± 0.40141 L/kg

**Q.** What about the “AUC(0-inf)” value [1, 6] of the same molecule?
**A.** 3946.77±756.89 h*(ng/mL)

**Q.** What about the “AUC(0-t)” value [1, 6] of the same molecule?
**A.** 3868.01±745.36 h*(ng/mL)

**Q.** And the CL [1, 6]?
**A.** 273.49±46.98 (mL/h)/kg

**Q.** And the V [1, 6]?
**A.** 1.55445 ± 0.21969 L/kg

**Q.** And the “AUC(0-inf)” value [1, 7]?
**A.** 3845.72±851.15 h*(ng/mL)

**Q.** And the “AUC(0-t)” value [1, 7]?
**A.** 3783.24±852.77 h*(ng/mL)

**Q.** What about the CL [1, 7] of the same molecule?
**A.** 283.83±58.84 (mL/h)/kg

**Q.** And the Cmax [1, 7]?
**A.** 504.33 ± 99.44 ng/mL

**Q.** And the V [1, 7]?
**A.** 1.5704 ± 0.40141 L/kg

**Q.** And the “difference of t 1/2, AUC(0-t), AUC(0-inf), V and CL” value ([1]; between the CD group and the CDA group (healthy rats))?
**A.** no significant difference

**Q.** What about the Tmax [1, 8] of the same molecule?
**A.** 5.67 ± 0.82 h

**Q.** What about the half-life [1, 8] of the same molecule?
**A.** 3.61 ± 0.21 h

**Q.** What about the Cmax ([1]; male, Sprague-Dawley, rat, plasma, po, 1.05 mg/kg, CD group: healthy rats, DAPA alone, single intragastric dose 1.05 mg/kg, n = 6, mean ± SD, read-out: C max) of the same molecule?
**A.** 385 ± 46 ng/mL

**Q.** And the MRT last [1, 8]?
**A.** 6.89 ± 0.28 h

**Q.** And the Tmax [1, 9]?
**A.** 2.61 ± 0.9 h

**Q.** And the half-life [1, 9]?
**A.** 3.96 ± 0.17 h

**Q.** And the Cmax ([1]; male, Sprague-Dawley, rat, plasma, po, 1.05 mg/kg, CDA-H group: healthy rats, ARE 900 mg/kg once a day for 7 days + DAPA single dose 1.05 mg/kg on day 7, n=6, mean ± SD, read-out: Cmax)?
**A.** 538 ± 123 ng/mL

**Q.** And the MRT last [1, 9]?
**A.** 5.04 ± 0.27 h

**Q.** What about the Tmax [1, 10] of the same molecule?
**A.** 2.5 ± 1.22 h

**Q.** What about the half-life [1, 10] of the same molecule?
**A.** 3.8 ± 0.22 h

**Q.** And the MRT last [1, 10]?
**A.** 5.16 ± 0.36 h

**Q.** And the Tmax [1, 11]?
**A.** 2.5 ± 1.22 h

**Q.** What about the half-life [1, 11] of the same molecule?
**A.** 3.8 ± 0.22 h

**Q.** And the MRT last [1, 11]?
**A.** 5.16 ± 0.36 h

**Q.** And the “increase of C max” value ([2]; patients with mild liver function damage versus healthy subjects)?
**A.** 12%

**Q.** And the “increase of C max” value ([2]; patients with moderate liver function damage versus healthy subjects)?
**A.** 12%

**Q.** What about the “increase of C max” value ([2]; patients with severe liver function damage versus healthy subjects) of the same molecule?
**A.** 40%
